Data set [1] deals with HSP70 and HSP27 expression. Description: Western blot for heat shock response. In kind it is cell-based. As to conditions: treated cell lines.
Another data set concerns SNU-475. Description: Viability of HCC cell line SNU-475. In kind it is cell-based, human.
In another data set the test system is PLC/PRF/5. The data set is described as follows: Viability of HCC cell line PLC/PRF/5. It is filed as cell-based, human.
The subject of the next data set is SNU-398. The data set is described as follows: Viability of HCC cell line SNU-398. In kind it is cell-based, human.
For data set [2], the system named is Wnt/β-catenin, Stat3, AKT/mTOR, and EGFR/Ras/Raf pathway proteins. The data set is described as follows: Western blotting of signaling proteins in PDX. It is filed as in vivo, mouse. The settings on record: NEN 1,500 p.p.m in food. In general terms: In western blotting, separated proteins are transferred to a membrane and probed.
In the next data set the test system is Hep3B. Description: Viability of HCC cell line Hep3B. In kind it is cell-based, human.
Data set [3] has as its system genetically induced liver tumors. Description: Primary HCC mouse model. In kind it is in vivo. The settings on record: 1500 p.p.m in food, 12 weeks; for number of tumor nodules in the livers: vs control food.
The subject of data set [4] is orthotopic PDX from HCC patients (HCC-1, HCC-2, HCC-3). The data set is described as follows: Orthotopic HCC PDX models, drug in food. In kind it is in vivo, mouse. The settings on record: for PDX tumor growth (bioluminescence signals and tumor volumes): 1,500 p.p.m mixed in food, oral, vs regular chow.
Data set [5] deals with control shRNA and CDC37 shRNA stable transfected Huh7. The data set is described as follows: Cell viability of control shRNA and CDC37 shRNA Huh7. In kind it is cell-based, human. As to conditions: 6 days of treatment.
Another data set concerns Hep40. The data set is described as follows: Viability of HCC cell line Hep40. It is filed as cell-based, human. The settings on record: read-out: IC50 in HCC cell lines, Hep40.
Another data set concerns SNU-423. Description: Viability of HCC cell line SNU-423. In kind it is cell-based, human.
The subject of a further data set is SNU-182. The data set is described as follows: Viability of HCC cell line SNU-182. In kind it is cell-based, human.
The next data set concerns Huh7. Description: Viability of HCC cell line Huh7. In kind it is cell-based, human.
The target of data set [6] is T1, CDC37 (Homo sapiens, UniProt Q16543).
T1 sequence (Q16543 1-378): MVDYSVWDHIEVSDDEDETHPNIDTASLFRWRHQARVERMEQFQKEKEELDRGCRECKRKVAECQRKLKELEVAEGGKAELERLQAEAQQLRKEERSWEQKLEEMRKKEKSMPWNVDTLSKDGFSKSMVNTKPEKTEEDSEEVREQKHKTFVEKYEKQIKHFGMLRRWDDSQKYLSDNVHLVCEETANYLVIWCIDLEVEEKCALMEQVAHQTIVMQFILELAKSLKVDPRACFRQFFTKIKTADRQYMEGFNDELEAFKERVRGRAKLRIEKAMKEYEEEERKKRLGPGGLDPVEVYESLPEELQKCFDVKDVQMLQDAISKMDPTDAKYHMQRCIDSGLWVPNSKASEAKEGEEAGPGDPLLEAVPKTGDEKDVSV
The data set is described as follows: Thermal Shift Assay. In kind it is binding. The settings on record: DMSO control 52.3 °C.

For data set [7] the following is noted: cited from earlier work.
In data set [8] the test system is control shRNA and CDC37 shRNA stable transfected HepG2. Description: Cell viability of control shRNA and CDC37 shRNA HepG2. It is filed as cell-based, human. The settings on record: 6 days of treatment.
For data set [9] the following is noted: cited from earlier work. This is another data set of the same source.
The next data set has as its target HSP90/CDC37 complex (Homo sapiens, UniProt Q16543). In kind it is biochemical. As to conditions: purified recombinant HSP90 and CDC37, ELISA and co-IP. For orientation: An ELISA detects its analyte on a solid surface through an enzyme-linked reagent.
The conditions of data set [10]: single oral dose 40 mg/Kg, mice bearing PDX, compared with niclosamide.
The subject of data set [11] is HepG2 and Huh7 cells. The data set is described as follows: In vitro anti-proliferation assay combined with sorafenib. As to conditions: added at its IC30 or IC50 to a range of sorafenib concentrations. In kind it is cell-based, human.
Data set [12] concerns control shRNA and CDC37 shRNA stable transfected Hep3B. The data set is described as follows: Cell viability of control shRNA and CDC37 shRNA Hep3B. In kind it is cell-based, human. The settings on record: 6 days of treatment.
The next data set relates to SNU-449. The data set is described as follows: Viability of HCC cell line SNU-449. In kind it is cell-based, human.
Another data set concerns HepG2. Description: Viability of HCC cell line HepG2. It is filed as cell-based, human.
Data set [13] deals with HepG2 and Huh7 cells. In kind it is cell-based, human. The settings on record: read-out: IC50, proliferation of HepG2 and Huh7 cells.
Data set [14] addresses T1, CDC37. Description: Pull-down assay with niclosamide-conjugated sepharose beads. It is filed as binding. As to conditions: niclosamide conjugated to epoxy-activated sepharose beads.
In data set [15] the test system is primary hepatocytes Hu8216. Description: Viability of primary hepatocytes Hu8216. As to conditions: Homo sapiens, Hepatocyte, read-out: IC50 in primary hepatocytes, Hu8216. It is filed as cell-based.
Data set [16] deals with primary hepatocytes Hu1748. The data set is described as follows: Viability of primary hepatocytes Hu1748. It is filed as cell-based. The settings on record: Homo sapiens, Hepatocyte, read-out: IC50 in primary hepatocytes, Hu1748.
The subject of the next data set is PDX-HCC-2. Description: PDX. In kind it is in vivo, mouse. As to conditions: PDX HCC-2, sorafenib 50 mg/Kg, NEN 200 mg/Kg or niclosamide 400 mg/Kg, daily oral gavage, four weeks.

Here are results for five molecules from paper PMC5447464 (Gastroenterology, 2017).

Where two headings read alike, the source gives them in different places.

For `NCCO.O=C(Nc1ccc([N+](=O)[O-])cc1Cl)c1cc(Cl)ccc1O` [NEN, niclosamide ethanolamine], the “heat shock response (HSP70 and HSP27 induction)” value in data set [1] is “did not induce the classical heat shock response”. Besides, the IC50 came out at 350 nM with SNU-475 (read-out: IC50 in HCC cell lines, SNU-475, viability, SNU-475); 530 nM in the data set on PLC/PRF/5 (read-out: IC50 in HCC cell lines, PLC/PRF/5, viability, PLC/PRF/5); 200 nM in the data set on SNU-398 (read-out: IC50 in HCC cell lines, SNU-398, viability, SNU-398); 170 nM in the data set with Hep3B (read-out: IC50 in HCC cell lines, Hep3B, viability); 930 nM in data set [5] (read-out: IC50, CDC37 knockdown Huh7, CDC37 shRNA); 610 nM in data set [5] (read-out: IC50, mock transfected (control shRNA) Huh7, control shRNA). The IC50 in the data set with Hep40 (viability, Hep40) turned out to be 740 nM; with SNU-423 (read-out: IC50 in HCC cell lines, SNU-423, viability, SNU-423), 260 nM; with SNU-182 (read-out: IC50 in HCC cell lines, SNU-182, viability, SNU-182), 340 nM; in the data set on Huh7 (read-out: IC50 in HCC cell lines, Huh7, viability, Huh7), 630 nM; in data set [8] (read-out: IC50, CDC37 knockdown HepG2, CDC37 shRNA) it was 610 nM; in [8] (read-out: IC50, mock transfected (control shRNA) HepG2, control shRNA) it was 350 nM. The IC50 is 520 nM in data set [12] (read-out: IC50, CDC37 knockdown Hep3B, CDC37 shRNA); 160 nM in data set [12] (read-out: IC50, mock transfected (control shRNA) Hep3B, control shRNA); 530 nM in the data set with SNU-449 (read-out: IC50 in HCC cell lines, SNU-449, viability, SNU-449); 460 nM with HepG2 (read-out: IC50 in HCC cell lines, HepG2, viability, HepG2). The “expression levels of signaling pathway proteins” value in data set [2] is given as “decreased expression levels of proteins involved in multiple signaling pathways”. In [3] (vs control and niclosamide groups), the “weight of whole livers (liver plus tumor nodules)” value was “significantly reduced liver weight”. Further, the “number of tumor nodules in the livers” value in data set [3] is given as “visibly reduced the number of tumor nodules”. Further, the “PDX tumor growth (bioluminescence signals and tumor volumes)” value in [4] was “significantly decreased PDX growth”. The body weight changes result in [4] (end of treatment period, treated vs control groups) was “no significant body weight changes”. Also, the “IC30, Huh7” value in the data set on Huh7 (Huh7) was determined as 0.5 µM. In addition, the “average Tm value of CDC37” value worked out at 54.97 °C on CDC37 [6] (25 μM) and 56.03 °C on CDC37 [6] (50 μM). The systemic bioavailability result in [7] was “improved water solubility and systemic bioavailability over niclosamide”. In addition, in data set [9], the water solubility entry is recorded as “improved water solubility”. In addition, at HSP90/CDC37 complex, the “effect on HSP90/CDC37 interaction” value was “inhibited the HSP90/CDC37 interaction”. Further, in data set [10], the plasma levels result is listed as “similarly higher”. In addition, the “effect on IC50 of sorafenib in HCC cells” value in the data set with HepG2 and Huh7 cells [11] is on record as “reduced their IC50 values to sorafenib”. The “IC30, HepG2” value with HepG2 (HepG2) was 0.4 µM.

As for `NCCO` [ethanolamine], the “average Tm value of CDC37” value on CDC37 [6] (25 μM) was 52.93 °C; at CDC37 [6] (50 μM), 53.2 °C.

For `COC(=O)Nc1nc2ccc(C(=O)c3ccccc3)cc2[nH]1` [mebendazole], the IC50 in the data set on HepG2 and Huh7 cells [13] (Homo sapiens) lay within 380 to 1650 nM.

As for `O=C(Nc1ccc([N+](=O)[O-])cc1Cl)c1cc(Cl)ccc1O` [niclosamide], the IC50 is 400 nM with SNU-475 (Homo sapiens, SNU-475, read-out: IC50 in HCC cell lines, SNU-475); 770 nM in the data set with PLC/PRF/5 (Homo sapiens, PLC-PRF-5, read-out: IC50 in HCC cell lines, PLC/PRF/5); 240 nM with SNU-398 (Homo sapiens, SNU-398, read-out: IC50 in HCC cell lines, SNU-398); 200 nM in the data set on Hep3B (Homo sapiens, read-out: IC50 in HCC cell lines, Hep3B); 650 to 1770 nM in the data set with HepG2 and Huh7 cells [13] (Homo sapiens); 810 nM in the data set on Hep40 (Homo sapiens). For the same molecule, the IC50 stood at 320 nM with SNU-423 (Homo sapiens, SNU-423, read-out: IC50 in HCC cell lines, SNU-423); 360 nM in the data set with SNU-182 (Homo sapiens, SNU-182, read-out: IC50 in HCC cell lines, SNU-182); 4.31 µM in data set [15]; 740 nM with Huh7 (Homo sapiens, Huh-7, read-out: IC50 in HCC cell lines, Huh7); 3.64 µM in [16]; 670 nM with SNU-449 (Homo sapiens, SNU-449, read-out: IC50 in HCC cell lines, SNU-449). In addition, the IC50 in the data set on HepG2 (Homo sapiens, HepG2, read-out: IC50 in HCC cell lines, HepG2) stood at 850 nM. In addition, in data set [3], the “number of tumor nodules in the livers” value is “much lesser effect than NEN”. Further, in data set [4], the “PDX tumor growth (bioluminescence signals and tumor volumes)” value is “did not produce any significant effects on tumor growth”. The “pull-down of CDC37” value at CDC37 [14] was “pulled down CDC37”. Further, the systemic bioavailability entry in data set [7] (in vivo) is recorded as “very limited systemic bioavailability”. Further, in the data set with PDX-HCC-2, the tumor volume entry is recorded as “did not decrease tumor volume”.

Consider ivermectin, for which, in the data set with HepG2 and Huh7 cells [13] (range over HepG2 and Huh7, Supplemental Figure 8), the IC50 is above 10000 nM.
